The record followed here is patent US7160874B2, “Phenylalanine derivatives” (Ajinomoto Co., Inc., priority 1999, dated 2007).

The target in one assay is T1, integrin α4β7 (Homo sapiens, UniProt P13612+P26010).
T1 construct: lymphoma cell strain RPMI-8866 of human B cells, known to express integrin α4β7; endogenous in cells; host or cells: RPMI-8866 (human B lymphoma cell line)
T1 sequence (P13612 34-1032): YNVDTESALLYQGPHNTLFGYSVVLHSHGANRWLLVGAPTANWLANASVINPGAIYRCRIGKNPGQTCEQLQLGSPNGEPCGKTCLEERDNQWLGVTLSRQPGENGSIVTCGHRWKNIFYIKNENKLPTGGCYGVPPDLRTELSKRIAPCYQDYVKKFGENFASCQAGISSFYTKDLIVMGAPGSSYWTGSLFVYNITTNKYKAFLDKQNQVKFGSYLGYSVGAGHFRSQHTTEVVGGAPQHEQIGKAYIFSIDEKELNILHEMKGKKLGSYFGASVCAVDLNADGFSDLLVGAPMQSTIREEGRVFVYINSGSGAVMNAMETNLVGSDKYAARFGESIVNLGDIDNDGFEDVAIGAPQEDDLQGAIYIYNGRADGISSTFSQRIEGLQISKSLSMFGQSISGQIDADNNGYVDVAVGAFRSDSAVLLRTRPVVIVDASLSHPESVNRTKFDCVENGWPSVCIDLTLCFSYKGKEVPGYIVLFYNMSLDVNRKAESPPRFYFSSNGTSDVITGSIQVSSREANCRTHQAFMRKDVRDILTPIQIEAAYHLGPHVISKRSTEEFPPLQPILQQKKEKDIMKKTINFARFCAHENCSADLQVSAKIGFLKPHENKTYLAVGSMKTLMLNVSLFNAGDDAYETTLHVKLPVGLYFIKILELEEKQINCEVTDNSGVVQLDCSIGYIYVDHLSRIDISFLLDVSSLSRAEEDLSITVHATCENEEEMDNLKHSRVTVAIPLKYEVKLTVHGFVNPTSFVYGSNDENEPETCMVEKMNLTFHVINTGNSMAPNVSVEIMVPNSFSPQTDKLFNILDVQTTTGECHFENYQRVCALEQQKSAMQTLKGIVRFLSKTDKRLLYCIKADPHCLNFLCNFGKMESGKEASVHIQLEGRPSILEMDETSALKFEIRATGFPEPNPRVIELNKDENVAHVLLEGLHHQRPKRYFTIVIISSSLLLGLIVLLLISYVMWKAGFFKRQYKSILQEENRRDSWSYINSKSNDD
T1 sequence (P26010 20-798): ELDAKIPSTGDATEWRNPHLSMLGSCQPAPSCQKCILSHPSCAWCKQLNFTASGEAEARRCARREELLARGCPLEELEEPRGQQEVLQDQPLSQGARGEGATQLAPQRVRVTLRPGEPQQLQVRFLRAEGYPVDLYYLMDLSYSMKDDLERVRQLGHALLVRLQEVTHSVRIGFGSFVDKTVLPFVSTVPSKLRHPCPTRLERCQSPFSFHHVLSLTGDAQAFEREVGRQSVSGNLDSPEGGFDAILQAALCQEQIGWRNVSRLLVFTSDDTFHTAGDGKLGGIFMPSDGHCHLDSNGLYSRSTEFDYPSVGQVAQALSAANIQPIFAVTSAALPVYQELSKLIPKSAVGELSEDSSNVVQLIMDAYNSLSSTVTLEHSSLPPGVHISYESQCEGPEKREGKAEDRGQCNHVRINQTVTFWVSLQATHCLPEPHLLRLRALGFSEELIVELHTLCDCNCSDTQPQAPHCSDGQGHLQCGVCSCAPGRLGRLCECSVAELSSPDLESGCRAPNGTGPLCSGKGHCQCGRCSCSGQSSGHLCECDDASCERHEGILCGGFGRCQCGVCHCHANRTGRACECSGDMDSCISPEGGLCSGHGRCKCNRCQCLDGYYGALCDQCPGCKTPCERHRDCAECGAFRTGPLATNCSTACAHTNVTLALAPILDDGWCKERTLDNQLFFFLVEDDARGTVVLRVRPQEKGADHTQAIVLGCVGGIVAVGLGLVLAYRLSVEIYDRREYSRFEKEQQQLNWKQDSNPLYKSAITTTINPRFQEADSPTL
Kind of assay: VCAM antagonistic activity (VCAM-1/α4β7 binding assay). It is filed as cell-based. Conditions: RPMI-8866 cells binding to VCAM-1; read-out: VCAM antagonistic activity (IC50) α4β7. Here is the method: (Test Example) VCAM Antagonistic Activity (VCAM-1/α4β7 Binding Assay):
The capacity of a test substance antagonistic to the binding of lymphoma cell strain RPMI-8866 of human B cells, known to express integrin α4β7, to VCAM-1 was determined.
(§1) 100 μl/well of a solution (500 ng/ml) of recombinant human VCAM-1 (R & D systems) solution diluted with buffer A (0.1 M NaHCO3, pH 9.6) was added to a micro titer plate having 96 wells (Nunc Maxisorp). After the incubation at 4° C. overnight, unbound VCAM-1 was removed by washing once with PBS. After completion of the washing, a buffer (buffer B) obtained by diluting Block Ace® (Dainippon Pharmaceutical Co., Ltd.) with PBS to 1/4 concentration was added in an amount of 150 μl/well. After the incubation at room temperature for 1 hour, buffer B was removed and the plate was washed with PBS once.
RPMI-8866 cells were incubated in Dulbecco modified Eagle medium containing 10 μg/ml of Calcein-AM (Wako Pure Chemical Industries, Ltd.) (SIGMA, hereinafter referred to as “DMEM”) at 37° C. for 30 minutes to label with fluorescence. The cells were again suspended in a binding buffer (20 mM HEPES, DMEM containing 0.1% BSA) containing 4 mM of MnCl2.
(§2) 50 μl of a test substance of various concentrations obtained by the dilution with the binding buffer was added to the plate. Immediately thereafter, 50 μl (final volume: 100 μl/well) of the fluorescent RPMI-8866 cells (4×10^6 cells/ml) were added thereto, and they were incubated at room temperature for 30 minutes. After the shaking on a plate shaker (IKA MTS-4) at 800 rpm for 30 seconds, the solution was immediately removed to remove the unbound cells. The fluorescence quantity of the bound cells remaining in the wells was determined with a fluorescent plate reader (Wallac 1420 ARVO multi-label counter) (filter excitation wave length: 485 nm, emission wave length: 535 nm). The fluorescent strength thus obtained is proportional to the number of RPMI-8866 cells bound to VCAM-1 and remaining on the plate. The binding rate of each test material in various concentrations was determined while the fluorescent strength of the test material-free well was determined to be 100%. The concentration IC50 for the 50% binding inhibition was calculated.
(§3) The activities were classified into group A wherein IC50 was 0.02 μmol/l or below, group B wherein IC50 was higher than 0.02 μmol/l and not above 0.1 μmol/l, group C wherein IC50 was higher than 0.1 μmol/l and not above 2 μmol/l, and group D wherein IC50 was higher than 2 μmol/l and not above 10 μmol/l.

For another assay, the target named is T2, integrin α4β1 (Homo sapiens, UniProt P05556+P13612).
T2 construct: cell strain Jurkat (ATCC TIB-152) of human T cells, known to express integrin α4β1; host or cells: Jurkat (human T cell line)
Nature of the assay: VCAM antagonist activity (VCAM-1/α4β1 binding assay). It is filed as cell-based. Particulars: Jurkat cells binding to VCAM-1; read-out: VCAM antagonistic activity (IC50) α4β1. Here is the method:
(Test Example) VCAM Antagonist Activity (VCAM-1/α4β1 Binding Assay):
The capacity of a test substance antagonistic to the binding of cell strain Jurkat (ATCC TIB-152) of human T cells, known to express integrin α4β1, to VCAM-1 was determined.
as §1
Jurkat cells were washed with Dulbecco modified Eagle medium (SIGMA, hereinafter referred to as “DMEM”) twice and then incubated in DMEM containing 10 μg/ml of Calcein-AM (Wako Pure Chemical Industries, Ltd.) at 37° C. in dark place for 30 minutes to label with fluorescence. The cells were again suspended in a binding buffer (20 mM HEPES, DMEM containing 0.1% BSA).
as §2, with “Jurkat” for “RPMI-8866”
as §3

T2 sequence (P05556 21-798, one chain of several): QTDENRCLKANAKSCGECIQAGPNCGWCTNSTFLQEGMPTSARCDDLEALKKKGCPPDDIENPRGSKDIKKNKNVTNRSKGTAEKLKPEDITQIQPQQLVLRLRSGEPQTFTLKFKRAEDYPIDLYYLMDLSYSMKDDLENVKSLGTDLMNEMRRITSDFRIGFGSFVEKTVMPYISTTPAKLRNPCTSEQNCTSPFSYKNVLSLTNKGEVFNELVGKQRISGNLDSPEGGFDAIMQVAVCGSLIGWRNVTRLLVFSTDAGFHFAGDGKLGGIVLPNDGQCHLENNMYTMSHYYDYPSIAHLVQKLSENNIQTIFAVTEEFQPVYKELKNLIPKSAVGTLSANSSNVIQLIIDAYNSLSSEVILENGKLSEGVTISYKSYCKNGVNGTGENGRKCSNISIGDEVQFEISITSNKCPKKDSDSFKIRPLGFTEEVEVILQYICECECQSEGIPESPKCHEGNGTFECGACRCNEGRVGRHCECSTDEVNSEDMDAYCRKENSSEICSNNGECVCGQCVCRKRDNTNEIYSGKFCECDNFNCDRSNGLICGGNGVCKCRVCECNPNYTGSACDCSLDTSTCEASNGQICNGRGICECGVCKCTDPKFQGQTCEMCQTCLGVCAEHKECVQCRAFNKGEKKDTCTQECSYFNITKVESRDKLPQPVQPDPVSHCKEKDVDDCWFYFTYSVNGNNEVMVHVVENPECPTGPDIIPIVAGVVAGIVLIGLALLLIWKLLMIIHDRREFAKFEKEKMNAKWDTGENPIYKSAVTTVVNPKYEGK

`CCCC(CC)(C(=O)NC(Cc1ccc(OCc2c(Cl)cccc2Cl)cc1)C(=O)O)C(=O)N1CCCC1` (mixture of isomers) [Example 37]: the 50% inhibitory concentration (IC50) on integrin α4β7 was 20 to 100 nM; at integrin α4β1, 2000 to 10000 nM.
For `CCC(C)(C(=O)NC(Cc1ccc(OCc2c(Cl)cccc2Cl)cc1)C(=O)O)C(=O)N1CCCC1` (mixture of isomers) [Example 38], the IC50 at integrin α4β7 and on integrin α4β1 was 100 to 2000 nM in each case.
With `CCC(CCOC)(C(=O)NC(Cc1ccc(OCc2c(Cl)cccc2Cl)cc1)C(=O)O)C(=O)N1CCCC1` (mixture of isomers) [Example 43], the IC50 at integrin α4β7 was < 20 nM; on integrin α4β1 it was 100 to 2000 nM.
In the case of `CCC(CC)(C(=O)NC(Cc1ccc(OCc2c(Cl)cccc2Cl)cc1)C(=O)O)C(=O)N1CCC(N)C1` (mixture of isomers) [Example 47], the IC50 was < 20 nM on integrin α4β7 and 100 to 2000 nM at integrin α4β1.
For `CCC(CC)(C(=O)NC(Cc1ccc(OCc2c(Cl)cccc2Cl)cc1)C(=O)O)C(=O)N1CCCC(O)C1` (mixture of isomers) [Example 48], in that order: 20 to 100 nM and 100 to 2000 nM.
In the same order, the values of `CCC(CC)(C(=O)NC(Cc1ccc(OCc2c(Cl)cccc2Cl)cc1)C(=O)O)C(=O)N1CCCCC1C(N)=O` (mixture of isomers) [Example 51] are 20 to 100 nM and 100 to 2000 nM.
For `CCC(CC)(C(=O)NC(Cc1ccc(OCc2c(Cl)cccc2Cl)cc1)C(=O)O)C(=O)N1CCCC(CO)C1` (mixture of isomers) [Example 60], in that order: 100 to 2000 nM and 100 to 2000 nM.
As for `CCC(CC)(C(=O)N[C@@H](Cc1ccc(OCc2c(Cl)cccc2Cl)cc1)C(=O)O)C(=O)N1C[C@@H](O)[C@H](O)C1` (relative stereo) [Example 83, N-(2-{[(trans-3,4-dihydroxypyrrolidine)-1-yl]carbonyl}-2-ethyl-butanoyl)-O-(2,6-dichlorobenzyl)-L-tyrosine], the IC50 on integrin α4β7 is < 20 nM; at integrin α4β1, 20 to 100 nM.
For `CN(C)C(=O)C(C)(C)C(=O)N[C@@H](Cc1ccc(OCc2c(Cl)cccc2Cl)cc1)C(=O)O` [Example 2, N-[2-(dimethylaminocarbonyl)-2-methyl-propanoyl]-O-(2,6-dichlorobenzyl)-L-tyrosine], in that order: 20 to 100 nM and 100 to 2000 nM.
In the same order, the values of `CCC(CC)(C(=O)N[C@@H](Cc1ccc(OCc2c(Cl)cccc2Cl)cc1)C(=O)O)C(=O)N(C)C` [Example 3] are < 20 nM and 100 to 2000 nM.
On to `CCC(CC)(C(=O)Nc1ccc(O)cc1)C(=O)N[C@@H](Cc1ccc(OCc2c(Cl)cccc2Cl)cc1)C(=O)O` [Example 5], for which the IC50 on integrin α4β7 and at integrin α4β1 was 100 to 2000 nM throughout.
For the molecule `CCC(CC)(C(=O)NCCc1ccc(O)cc1)C(=O)N[C@@H](Cc1ccc(OCc2c(Cl)cccc2Cl)cc1)C(=O)O` [Example 6], the IC50 at integrin α4β7 lay in the range of 100 to 2000 nM; on integrin α4β1, 2000 to 10000 nM.
For `CCC(CC)(C(=O)N[C@@H](Cc1ccc(OCc2c(Cl)cccc2Cl)cc1)C(=O)O)C(=O)N1CCN(c2ccc(O)cc2)CC1` [Example 7], in that order: 100 to 2000 nM and 100 to 2000 nM.
For `CN(C)C(=O)C1(C(=O)N[C@@H](Cc2ccc(OCc3c(Cl)cccc3Cl)cc2)C(=O)O)CCCC1` [Example 8], in that order: 100 to 2000 nM and 100 to 2000 nM.
`O=C(O)[C@H](Cc1ccc(OCc2c(Cl)cccc2Cl)cc1)NC(=O)C1(C(=O)N2CCN(c3ccc(O)cc3)CC2)CCCC1` [Example 9]: the 50% inhibitory concentration (IC50) at integrin α4β7 and on integrin α4β1 was 100 to 2000 nM in each case.
As for `CCC(CC)(C(=O)N[C@@H](Cc1ccc(OCc2c(Cl)cccc2Cl)cc1)C(=O)O)C(=O)N1CCCCC1` [Example 17], the IC50 at integrin α4β7 and at integrin α4β1 was 100 to 2000 nM each time.
With `CN(C)C(=O)C1(C(=O)N[C@@H](Cc2ccc(OCc3c(Cl)cccc3Cl)cc2)C(=O)O)CC1` [Example 21], the figures for the IC50 on integrin α4β7 and at integrin α4β1 were 100 to 2000 nM and 2000 to 10000 nM, respectively.
